Assay results from patent publication US9814865B2, “Coated medical device” (Cook Medical Technologies LLC, priority 2000, dated 2017).

Assay: physical adhesion test simulating introduction and deployment of paclitaxel-coated stents
Format: physicochemical
Details: passed through water-filled guiding catheter, balloon-expanded, measured by spectrometry
Excerpt: More particularly, the adhesion of paclitaxel to two types of stainless steel, grit abraded stents was compared to its adhesion to stents of those types whose surfaces had instead been plasma treated prior to the direct deposition of paclitaxel thereon (control stents). The coated stents of both types, that is, medical devices 10 of the present invention and control stents, were then subjected to a physical adhesion test which simulated the rate at which paclitaxel would be delivered during introduction and deployment of the stents in clinical use. The adhesion test involved passing each stent through a water-filled guiding catheter of appropriate diameter and inflating the balloon catheter to expand each stent to its intended diameter. The stents are already mounted before coating. The amount of paclitaxel remaining on each stent was then measured by spectrometry and compared to the amount of paclitaxel initially posited on each stent. Stents having surfaces 16 roughened or textured by abrasion with different abrasive grits 24 retained 84.1±10.2% of the paclitaxel originally applied, while stents having plasma treated surfaces retained only 44.3±8.7% of the paclitaxel originally applied (p<0.0001).

paclitaxel originally applied retained on stent after adhesion test (stainless steel control stents with plasma treated surfaces, p<0.0001 vs abraded): 44.3±8.7%
paclitaxel originally applied retained on stent after adhesion test (stainless steel stents, surfaces roughened or textured by abrasion with different abrasive grits): 84.1±10.2%
Compound: CC(=O)O[C@H]1C(=O)[C@@]2(C)[C@H]([C@H](OC(=O)c3ccccc3)[C@]3(O)C[C@H](OC(=O)[C@H](O)[C@@H](NC(=O)c4ccccc4)c4ccccc4)C(C)=C1C3(C)C)[C@]1(OC(C)=O)CO[C@@H]1C[C@@H]2O [paclitaxel]
